Patent US5886156A, “Synthetic peptide lung surfactants having covalently bonded antioxidants” (Merrell Pharmaceuticals Inc., priority 1996, dated 1999)

Test system: surfactant-deficient lavaged rat lungs
Experiment: Isolated rat lavaged lung model (adult rat lung model), pressure-volume curve
Design: species or system rat (male Sprague Dawley)
Details: for PC5 (% TLC): per cent of total lung capacity at 5 cm H2O pressure, deflation limb of P-V curve / PC10 (% TLC): per cent of total lung capacity at 10 cm H2O pressure, deflation limb of P-V curve: peptide-DPPC mixture (or DPPC alone) instilled into lavaged excised rat lungs, 25 mg phospholipid, 100-125 mg/kg, 37° C.; for RESTORATION % (per cent restoration based on PC5 values): relative to surfactant-sufficient (100) and surfactant-deficient (0) lungs, peptide-DPPC mixture or DPPC alone
Text: Methods of testing the synthetic surfactant preparations for efficacy are well known in the art. For example, the synthetic surfactant preparations of the present invention can be tested in any appropriate manner such as in the adult rat lung model (Ikegami, et al., (1979) Pediatr. Res. 13, 777-780). Pressure-volume characteristics of surfactant-depleted rat lungs are similar to those of lungs of infants with hyaline membrane disease and restoration of the pressure-volume relationship of the lung to normal is related to the amount of surfactant instilled in a dose dependent manner. (Bermel, M. S., et al., […] excised rat lungs as a model of surfactant deficiency, Lung 162: 99-113 (1984)). The experimental procedures for animal preparation, pressure-volume curve registration and lung lavage are adapted from those described by Ikegami et al., Pediatr. Res. 11: 178-182 (1977) and Pediatr. Res. 13: 777-780 (1979, and Bermel et al, Lung 162: 99-113 (1984). Male Sprague Dawley rats (200-250 g) are anesthetized with sodium pentobarbital and exsanguinated. The trachea is cannulated and the thoracic organs are removed en bloc. After removal of the adventitious tissue, the trachea and lungs (~2 g) are suspended in saline (0.9%), placed in a vacuum chamber, and degassed according to the procedure of […] et al. the degassed lungs are suspended in saline in a 37° C., jacketed reservoir and the tracheal cannula is connected both to a water manometer and a glass syringe by a T-tube. The glass syringe is placed in an infusion/withdrawal pump. […] The total volume of air infused is recorded as the total lung capacity (TLC) which is generally 14-15 ml. The lungs are then deflated at a rate of 2.5 ml/min until zero pressure is attained. During deflation, pressure is read from the water manometer at 1 cm intervals and recorded. […] After degassing and equilibration, the lungs are rendered surfactant-deficient by repeated lavage with 5 ml/g lavage buffer (0.9% NaCl, 10 mM HEPES, pH 7.4). […] At this point, the lungs are considered surfactant-deficient. […] The mixture is then vortexed again, degassed if foamy, and 2 ml of the test mixture are introduced into and withdrawn from the lungs four times by syringe. When the test mixture is reintroduced to the lungs for the fifth time, it is allowed to remain in the lungs. This procedure is adopted to encourage even distribution of the material throughout the lung. The lungs are degassed, allowed to equilibrate at 37° C. for 5 min, and a P-V measurement is performed. Lungs are studied while supported in saline at 37° C. as opposed to ambient temperature since the physical characteristics of the surfactants may be dependent upon temperature. […] Data are presented in terms of the % TLC. […] Comparisons are based on per cent restoration=([…] ×100/(PC5 (sufficient) -PC5(deficient)) and made by one-way analysis of variance using the general linear models procedure with specific contrasts of the means (SAS Institute Inc., Cary, N.C.). […] The restoration based upon the PC5 values was used to compare the test mixtures.

| Compound | effect on the pressure-volume (P-V) curves of the lavaged lung (DPPC alone, without peptide) | PC5 (% TLC): per cent of total lung capacity at 5 cm H2O pressure, deflation limb of P-V curve [% TLC] | PC10 (% TLC): per cent of total lung capacity at 10 cm H2O pressure, deflation limb of P-V curve [% TLC] | RESTORATION % (per cent restoration based on PC5 values) [%] |
| --- | --- | --- | --- | --- |
| CCCCCCCCCCCCCCCC(=O)OC[C@H](COP(=O)([O-])OCC[N+](C)(C)C)OC(=O)CCCCCCCCCCCCCCC [DPPC, L-α-dipalmitoylphosphatidylcholine] | no significant effect | 13 ± 1 | 31 ± 2 | 11 ± 8 |
| HBB-Aoc-Glu-Trp-Ala-Lys-NH2 [SEQ ID NO: 5] |  | 55 ± 4 | 77 ± 2 | 81 ± 7 |
